Assay results from patent US8163718B2, “Nucleoside analogues containing phosphonate or phosphonamide groups” (Gilead Sciences, Inc., priority 2008, dated 2012).

Tests used:
Assay in all cases: Cytostatic cell culture assay (GI50), SRB
Type in all cases: cell-based
Conditions in all cases: 5 days incubation
BT-549 = system: BT-549
Text: (§1) The assay is based on quantification of cell counts by a colorimetric detection of the cell associated proteins. The assay relies on the ability of sulforhodamine B (SRB) to bind to protein components of cells that have been fixed to tissue-culture plates by trichloroacetic acid (TCA). SRB is a bright-pink aminoxanthene dye with two sulfonic groups that bind to basic amino-acid residues under mild acidic conditions, and dissociate under basic conditions. As the binding of SRB is stoichiometric, the amount of dye extracted from stained cells is directly proportional to the cell mass.
(§2) Cell lines: All cell lines were obtained from ATCC (Manassas, Va.). Cultivation media containing Glutamax, and trypsin were purchased from Invitrogen (Carlsbad, Calif.). Doxorubicin, Clofarabine, TCA and SRB were from Sigma-Aldrich (St. Louis, Mo.). Gemcitabine was obtained from Moravek Biochemicals (Brea, Calif.)
(§3) • 1. Trypsinize the sub-confluent cells, count them, and adjust the cell concentrations according to the cell counts listed in Table 1. • 2. Distribute the cells into the 96-well plates in 150 μL of media. Incubate the plates overnight in humidified CO2 incubator at 37° C. • 3. Fix one plate of each cell line with TCA. Discard the cultivation media from the plates by flicking them gently and add 100 ul cold 10% (vol/vol) TCA to each well. Incubate the plates at 4 degree refrigerator for 1 hour. Discard TCA from the plates by flicking them gently. Rinse plates four times in a washing basin containing tap water. Store the plates at room temperature. These plates represent cell counts on day zero. • 4. Prepare a set of medium solutions containing various concentrations of tested compounds by making 5-fold serial dilutions in 96-well plate. Add 50 μL of the diluted compounds per well. Include controls with untreated cells and cells treated with doxorubicin, clofarabine and gemcitabine. • 5. Incubate the plates for 5 days at 37° C. • 6. Fix the plates with TCA. Discard the cultivation media from the plates by flicking them gently and add 100 ul cold 10% (vol/vol) TCA to each well. Incubate the plates at 4 degree refrigerator for 1 hour. Discard TCA from the plates by flicking them gently. Rinse plates four times in a washing basin containing tap water. • 7. Remove excess water by tapping the plates face down, gently on a paper towel. Allow the plates to air-dry at room temperature. • 8. Add 100 ul of 0.057% SRB solution in 1% (vol/vol) acetic acid to each well of the plates fixed with TCA on day zero and five. Leave at room temperature for 30 minutes. • 9. Flick the plates gently to discard SRB. Rinse the plates four times with 1% (vol/vol) Acetic Acid. • 10. Store the plates at 37 degree incubator to facilitate faster drying. • 11. Once the plates are completely dry, add 200 ul of 10 mM Tris base solution (pH 10.5) to each well. Leave at room temperature for 30 minutes for SRB to solubilize. • 12. Measure the OD at 500 nm in a microplate reader • 13. Calculate the percentage of cell-growth inhibition using the next formula: % of control cell growth=100×(ODsample−mean ODday0)/(ODneg control−mean ODday0)
(§4) For GI50 determination, plot a dose-response curve between the compound concentration and percent of growth inhibition. GI50 values can be derived by fitting dose-response curves using sigmoidal dose response equation.

PC3 = system: PC3
Text: as §1, §2, §3, §4

A549 = system: A549
Text: as §1, §2, §3, §4

NCI-H23 = system: NCI-H23
Text: as §1, §2, §3, §4

HCT-116 = system: HCT-116
Text: as §1, §2, §3, §4

Hs-578 = system: Hs-578
Text: as §1, §2, §3, §4

HCT-15 = system: HCT-15
Text: as §1, §2, §3, §4

Du-145 = system: Du-145
Text: as §1, §2, §3, §4

| Structure (SMILES) | GI50 (BT-549; Homo sapiens, BT-549, 120 h) | GI50 (PC3; Homo sapiens, PC-3, 120 h) | GI50 (A549; Homo sapiens, A549, 120 h) | GI50 (NCI-H23; Homo sapiens, NCI-H23, 120 h) | GI50 (HCT-116; Homo sapiens, HCT-116, 120 h) | GI50 (Hs-578; Hs578, 120 h) | GI50 (HCT-15; Homo sapiens, HCT-15, 120 h) | GI50 (Du-145; Homo sapiens, DU-145, 120 h) | GI50 (BT-549) | GI50 (PC3) | GI50 (A549) | GI50 (NCI-H23) | GI50 (HCT-116) | GI50 (Hs-578) | GI50 (HCT-15) | GI50 (Du-145) |
| --- | --- | --- | --- | --- | --- | --- | --- | --- | --- | --- | --- | --- | --- | --- | --- | --- |
| CCOC(=O)[C@H](C)NP(=O)(COCCn1cnc2c(OC3CC3)nc(N)nc21)N[C@@H](C)C(=O)OCC [Example 42] | 0.104 µM | 0.237 µM | 1.71 µM | 0.015 µM | 0.43 µM | 0.162 µM | 10 µM | 0.01 µM |  |  |  |  |  |  |  |  |
| CCOC(=O)[C@H](Cc1ccccc1)NP(=O)(COCCn1cnc2c(OC)nc(N)nc21)N[C@@H](Cc1ccccc1)C(=O)OCC [Example 30] | 0.023 µM | 0.103 µM | 0.036 µM | 0.01 µM | 0.027 µM | 0.017 µM | 1.9 µM | 0.003 µM |  |  |  |  |  |  |  |  |
| CCOC(=O)[C@@H]1CCCN1P(=O)(COCCn1cnc2c(NC3CC3)nc(N)nc21)N1CCC[C@H]1C(=O)OCC [Example 50] | 1.62 µM | 0.608 µM | 3.7 µM | 0.118 µM | 3.07 µM | 0.308 µM | > 10 µM | 0.25 µM |  |  |  |  |  |  |  |  |
| CCCCOC(=O)[C@H](C)NP(=O)(COCCn1cnc2c(OCCOC)nc(N)nc21)N[C@@H](C)C(=O)OCCCC [Example 49] | 0.05 µM | 0.003 µM | 0.368 µM | 0.002 µM | 0.109 µM | 0.025 µM | 5.1 µM | 0.001 µM |  |  |  |  |  |  |  |  |
| COc1nc(N)nc2c1ncn2CCOCP(=O)(N[C@@H](C)C(=O)OC(C)C)N[C@@H](C)C(=O)OC(C)C [Example 29] | 1.11 µM | 0.325 µM | 0.387 µM | 0.032 µM | 0.988 µM | 0.378 µM | > 10 µM | 0.029 µM |  |  |  |  |  |  |  |  |
| CCCOc1nc(N)nc2c1ncn2CCOCP(=O)(N[C@@H](C)C(=O)OCC)N[C@@H](C)C(=O)OCC [Example 14] | 0.266 µM | 0.275 µM | 0.381 µM | 0.029 µM | 0.488 µM | 0.202 µM | > 10 µM | 0.028 µM |  |  |  |  |  |  |  |  |
| CCCCOC(=O)[C@H](C)NP(=O)(COCCn1cnc2c(OCCC)nc(N)nc21)Oc1ccccc1 (single isomer, unassigned) [Example 52b] |  |  |  |  |  |  |  |  | 0.1 µM | 0.003 µM | 0.015 µM | 0.001 µM | 0.011 µM | 0.002 µM | 0.517 µM | 0.0003 µM |
| CCCOC(=O)[C@@H]1CCCN1P(=O)(COCCn1cnc2c(OCCC)nc(N)nc21)N1CCC[C@H]1C(=O)OCCC [Example 23] | 0.007 µM | 0.011 µM | 0.317 µM | 0.003 µM | 0.028 µM | 0.004 µM | 2.47 µM | 0.001 µM |  |  |  |  |  |  |  |  |
| CCCOc1nc(N)nc2c1ncn2CCOCP(=O)(Oc1ccccc1)N1CCC[C@H]1C(=O)OCc1ccccc1 (some centres unmarked) [Example 56] | 1.09 µM | 1.25 µM | 2.13 µM | 0.389 µM | 1.93 µM | 1.49 µM | 3.86 µM | 0.722 µM |  |  |  |  |  |  |  |  |
| CCCOc1nc(N)nc2c1ncn2CCOCP(=O)(Oc1ccc(Cl)cc1)N1CCC[C@H]1C(=O)OCC (some centres unmarked) [Example 62] | 4.44 µM | 0.044 µM | 1.87 µM | 0.049 µM | 2.79 µM | 1.07 µM | 10 µM | 0.001 µM |  |  |  |  |  |  |  |  |
| CCCOc1nc(N)nc2c1ncn2CCOCP(=O)(N1CCC[C@H]1C(=O)OC)N1CCC[C@H]1C(=O)OC [Example 22] | 0.116 µM | 0.121 µM | 0.64 µM | 0.038 µM | 0.194 µM | 0.082 µM | > 10 µM | 0.035 µM |  |  |  |  |  |  |  |  |
| Nc1nc(NC2CC2)c2ncn(CCOCP(=O)(O)O)c2n1 [Example 12, [2-(2-Amino-6-cyclopropylamino-purin-9-yl)-ethoxymethyl]-phosphonic acid] | 70 µM | 6.1 µM | 35 µM | 2.19 µM | 38 µM | 18 µM | 38 µM | 1.23 µM |  |  |  |  |  |  |  |  |
| CCCOc1nc(N)nc2c1ncn2CCOCP(=O)(N[C@@H](Cc1ccccc1)C(=O)OCC(C)C)N[C@@H](Cc1ccccc1)C(=O)OCC(C)C [Example 19] | 0.053 µM | 0.01 µM | 0.004 µM | 0.001 µM | 0.005 µM | 0.005 µM | 0.467 µM | 0.001 µM |  |  |  |  |  |  |  |  |
| CCCCOC(=O)[C@@H]1CCCN1P(=O)(COCCn1cnc2c(OCCC)nc(N)nc21)N1CCC[C@H]1C(=O)OCCCC [Example 25] | 0.015 µM | 0.016 µM | 0.45 µM | 0.002 µM | 0.043 µM | 0.008 µM | 1.49 µM | 0.002 µM |  |  |  |  |  |  |  |  |
| CCOC(=O)[C@H](C)NP(=O)(COCCn1cnc2c(OC(C)C)nc(N)nc21)N[C@@H](C)C(=O)OCC [Example 33] | 0.423 µM | 0.19 µM | 0.762 µM | 0.019 µM | 0.652 µM | 0.243 µM | > 10 µM | 0.018 µM |  |  |  |  |  |  |  |  |
| CCCCCOc1nc(N)nc2c1ncn2CCOCP(=O)(N[C@@H](C)C(=O)OCC)N[C@@H](C)C(=O)OCC [Example 41] | 0.301 µM | 0.01 µM | 0.195 µM | 0.011 µM | 0.133 µM | 0.062 µM | 6.4 µM | 0.001 µM |  |  |  |  |  |  |  |  |
| CCCCOC(=O)[C@H](C)NP(=O)(COCCn1cnc2c(OC)nc(N)nc21)N[C@@H](C)C(=O)OCCCC [Example 27] | 0.033 µM | 0.013 µM | 0.026 µM | 0.004 µM | 0.023 µM | 0.053 µM | 2.37 µM | 0.002 µM |  |  |  |  |  |  |  |  |
| CCCCOC(=O)[C@H](C)NP(=O)(COCCn1cnc2c(OCCC)nc(N)nc21)Oc1ccccc1 (single isomer, unassigned) [Example 52a] | 0.105 µM |  |  | 0.0009 µM |  |  | 0.553 µM | 0.0003 µM |  | 0.008 µM | 0.048 µM |  | 0.043 µM | 0.013 µM |  |  |
| CCOc1nc(N)nc2c1ncn2CCOCP(=O)(O)O [Example 5, [2-(2-Amino-6-ethoxy-purin-9-yl)-ethoxymethyl]-phosphonic acid] | 2 µM | 2.48 µM | 2.84 µM | 0.639 µM | 3.59 µM | 2.59 µM | 2.44 µM | 0.223 µM |  |  |  |  |  |  |  |  |
| CC(C)Oc1nc(N)nc2c1ncn2CCOCP(=O)(O)O [Example 3, [2-(2-Amino-6-isopropoxy-purin-9-yl)-ethoxymethyl]-phosphonic acid] | 2.48 µM | 1.38 µM | 2.98 µM | 0.551 µM | 2.44 µM | 2.45 µM | 2.53 µM | 0.177 µM |  |  |  |  |  |  |  |  |
| CCOC(=O)[C@H](C)NP(=O)(COCCn1cnc2c(OCCOC)nc(N)nc21)N[C@@H](C)C(=O)OCC [Example 48] | 1.71 µM | 0.372 µM | 4.09 µM | 0.061 µM | 2.52 µM | 0.976 µM | > 10 µM | 0.108 µM |  |  |  |  |  |  |  |  |
| CCOC(=O)[C@H](C)NP(=O)(COCCn1cnc2c(OC)nc(N)nc21)N[C@@H](C)C(=O)OCC [Example 28] | 0.573 µM | 0.381 µM | 0.736 µM | 0.028 µM | 0.859 µM | 0.38 µM | > 10 µM | 0.047 µM |  |  |  |  |  |  |  |  |
